Blank lines part the entries; values can stand above or below the compound they belong to.
How the values were obtained:
[1] = target: Mitogen-activated protein kinase kinase kinase 11 (Homo sapiens) (UniProt Q16584); assay: Selectivity interaction (Kinase panel (literature)) EUB0001199aCl MAP3K11; conditions: at 1 µM
[2] = target: Ephrin type-A receptor 4 (Homo sapiens, UniProt P54764); assay: Selectivity interaction (Upstate Kinase Profiler service (Millipore)) EUB0000056c EPHA4; conditions: at 1 µM
Chain of Ephrin type-A receptor 4 (P54764 whole entry): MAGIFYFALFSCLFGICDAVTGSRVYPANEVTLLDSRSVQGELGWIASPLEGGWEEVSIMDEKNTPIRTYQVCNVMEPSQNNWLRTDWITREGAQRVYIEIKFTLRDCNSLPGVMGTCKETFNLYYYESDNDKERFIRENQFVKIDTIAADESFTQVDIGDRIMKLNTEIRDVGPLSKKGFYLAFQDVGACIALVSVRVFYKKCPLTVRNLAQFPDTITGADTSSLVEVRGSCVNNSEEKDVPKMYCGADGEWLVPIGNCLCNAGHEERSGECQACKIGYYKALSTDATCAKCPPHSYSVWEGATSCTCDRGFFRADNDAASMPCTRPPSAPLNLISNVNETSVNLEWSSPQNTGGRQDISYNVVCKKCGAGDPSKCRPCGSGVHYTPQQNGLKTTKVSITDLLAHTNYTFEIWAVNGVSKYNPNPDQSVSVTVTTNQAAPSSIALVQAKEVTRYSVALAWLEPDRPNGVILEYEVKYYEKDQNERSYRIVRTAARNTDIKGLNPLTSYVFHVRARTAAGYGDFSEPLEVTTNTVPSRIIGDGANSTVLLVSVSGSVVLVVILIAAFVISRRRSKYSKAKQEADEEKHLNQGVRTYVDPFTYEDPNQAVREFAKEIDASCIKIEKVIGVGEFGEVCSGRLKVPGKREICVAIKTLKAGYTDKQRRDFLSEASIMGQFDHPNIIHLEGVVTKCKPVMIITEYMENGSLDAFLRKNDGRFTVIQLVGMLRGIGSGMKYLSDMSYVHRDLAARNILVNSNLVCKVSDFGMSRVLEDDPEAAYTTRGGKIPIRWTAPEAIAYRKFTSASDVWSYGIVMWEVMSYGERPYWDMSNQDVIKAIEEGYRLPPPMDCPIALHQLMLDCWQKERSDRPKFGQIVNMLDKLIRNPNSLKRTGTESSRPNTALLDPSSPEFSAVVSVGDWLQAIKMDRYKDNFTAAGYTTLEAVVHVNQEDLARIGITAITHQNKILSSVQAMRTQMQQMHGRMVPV

[3] = target: T1, Mitogen-activated protein kinase kinase kinase 3 (Homo sapiens) (UniProt Q99759); assay: Selectivity interaction (ProQinase) EUB0000171b MAP3K3
T1 sequence (whole entry): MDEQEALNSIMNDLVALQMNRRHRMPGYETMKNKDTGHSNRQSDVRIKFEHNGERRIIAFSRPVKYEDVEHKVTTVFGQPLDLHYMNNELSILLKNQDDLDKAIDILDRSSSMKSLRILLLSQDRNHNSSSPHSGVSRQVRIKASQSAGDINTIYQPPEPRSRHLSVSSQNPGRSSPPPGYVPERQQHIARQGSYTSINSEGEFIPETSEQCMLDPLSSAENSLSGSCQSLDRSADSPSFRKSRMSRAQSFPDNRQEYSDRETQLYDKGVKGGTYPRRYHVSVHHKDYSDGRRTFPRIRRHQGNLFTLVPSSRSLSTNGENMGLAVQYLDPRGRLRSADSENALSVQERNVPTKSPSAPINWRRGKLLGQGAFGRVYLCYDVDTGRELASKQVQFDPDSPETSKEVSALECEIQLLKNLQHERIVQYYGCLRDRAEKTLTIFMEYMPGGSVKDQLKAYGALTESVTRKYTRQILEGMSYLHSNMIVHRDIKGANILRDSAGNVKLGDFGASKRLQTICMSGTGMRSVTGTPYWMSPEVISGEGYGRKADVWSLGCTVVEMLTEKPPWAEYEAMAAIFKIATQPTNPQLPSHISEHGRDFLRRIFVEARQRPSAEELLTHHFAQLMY

[4] = target: CDK7/Cyclin H/MNAT1 (Homo sapiens) (UniProt P51946+P50613+P51948); assay: Selectivity interaction (Millipore kinase profiler) EUB0000124b CDK7; type: protein-complex assay; conditions: at 10 µM
[5] = test system: Epidermal growth factor receptor (Homo sapiens), P00533 [UNDEFINED MUTATION]; assay: Selectivity interaction (Ambit KINOMEscan and KiNATiv profiling in Jurkat cells) EUB0000090b EGFR; type: cell-based; conditions: at 1 µM
Chain of Epidermal growth factor receptor (Homo sapiens), P00533 [UNDEFINED MUTATION] (P00533 whole entry, looked up, change not shown): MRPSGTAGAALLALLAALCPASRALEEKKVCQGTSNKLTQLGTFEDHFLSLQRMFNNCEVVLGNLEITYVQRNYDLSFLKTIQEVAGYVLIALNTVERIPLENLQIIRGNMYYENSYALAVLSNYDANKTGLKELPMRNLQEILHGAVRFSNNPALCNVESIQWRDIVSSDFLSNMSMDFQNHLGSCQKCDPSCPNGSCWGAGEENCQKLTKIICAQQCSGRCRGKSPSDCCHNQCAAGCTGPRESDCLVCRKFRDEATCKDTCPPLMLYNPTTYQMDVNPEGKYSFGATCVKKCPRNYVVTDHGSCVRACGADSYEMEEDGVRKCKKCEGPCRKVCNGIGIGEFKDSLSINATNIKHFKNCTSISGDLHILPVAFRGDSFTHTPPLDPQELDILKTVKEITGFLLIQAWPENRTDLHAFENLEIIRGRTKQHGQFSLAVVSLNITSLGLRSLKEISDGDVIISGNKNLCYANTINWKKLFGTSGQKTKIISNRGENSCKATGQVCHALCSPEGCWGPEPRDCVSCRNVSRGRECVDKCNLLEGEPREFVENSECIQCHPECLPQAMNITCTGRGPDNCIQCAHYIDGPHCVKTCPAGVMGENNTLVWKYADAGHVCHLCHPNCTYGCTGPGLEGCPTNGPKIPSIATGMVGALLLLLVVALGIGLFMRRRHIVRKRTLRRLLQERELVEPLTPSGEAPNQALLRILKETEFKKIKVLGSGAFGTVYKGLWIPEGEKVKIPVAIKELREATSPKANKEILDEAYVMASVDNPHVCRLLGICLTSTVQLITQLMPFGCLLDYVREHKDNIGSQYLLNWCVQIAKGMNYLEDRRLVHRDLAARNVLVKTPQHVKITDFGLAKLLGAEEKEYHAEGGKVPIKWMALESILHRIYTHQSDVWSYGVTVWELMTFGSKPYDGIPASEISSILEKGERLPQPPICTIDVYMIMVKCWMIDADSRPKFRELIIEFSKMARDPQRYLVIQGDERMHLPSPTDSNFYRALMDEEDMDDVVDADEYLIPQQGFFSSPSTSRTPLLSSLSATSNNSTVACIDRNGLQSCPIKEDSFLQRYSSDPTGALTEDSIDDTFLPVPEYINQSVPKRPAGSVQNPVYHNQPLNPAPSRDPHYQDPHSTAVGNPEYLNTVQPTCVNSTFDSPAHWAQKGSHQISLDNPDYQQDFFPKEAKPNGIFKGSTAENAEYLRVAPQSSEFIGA

[6] = target: Serine/threonine-protein kinase PLK3 (Homo sapiens, UniProt Q9H4B4); assay: Selectivity interaction (Ambit KINOMEscan and KiNATiv profiling in Jurkat cells) EUB0000090b PLK3; type: cell-based; conditions: at 1 µM
Chain of Serine/threonine-protein kinase PLK3 (Q9H4B4 whole entry, looked up): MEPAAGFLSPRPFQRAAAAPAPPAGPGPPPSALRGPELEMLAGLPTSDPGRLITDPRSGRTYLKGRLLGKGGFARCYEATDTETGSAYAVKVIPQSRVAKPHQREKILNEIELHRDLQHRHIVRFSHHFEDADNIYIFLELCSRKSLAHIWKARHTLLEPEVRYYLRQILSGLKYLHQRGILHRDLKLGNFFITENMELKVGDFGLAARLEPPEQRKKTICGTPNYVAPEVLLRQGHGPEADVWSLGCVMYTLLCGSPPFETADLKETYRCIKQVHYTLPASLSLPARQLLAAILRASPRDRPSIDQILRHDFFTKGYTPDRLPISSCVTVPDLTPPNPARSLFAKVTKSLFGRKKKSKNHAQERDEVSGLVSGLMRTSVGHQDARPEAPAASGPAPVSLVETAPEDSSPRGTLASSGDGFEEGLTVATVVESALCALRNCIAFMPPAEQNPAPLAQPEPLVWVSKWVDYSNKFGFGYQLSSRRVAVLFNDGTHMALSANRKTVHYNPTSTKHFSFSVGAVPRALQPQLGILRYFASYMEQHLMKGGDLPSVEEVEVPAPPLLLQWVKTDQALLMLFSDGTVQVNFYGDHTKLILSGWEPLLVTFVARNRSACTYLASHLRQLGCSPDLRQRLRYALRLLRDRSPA

[7] = target: T2, Tyrosine-protein kinase JAK3 (Homo sapiens, UniProt P52333)
T2 sequence (P52333 whole entry): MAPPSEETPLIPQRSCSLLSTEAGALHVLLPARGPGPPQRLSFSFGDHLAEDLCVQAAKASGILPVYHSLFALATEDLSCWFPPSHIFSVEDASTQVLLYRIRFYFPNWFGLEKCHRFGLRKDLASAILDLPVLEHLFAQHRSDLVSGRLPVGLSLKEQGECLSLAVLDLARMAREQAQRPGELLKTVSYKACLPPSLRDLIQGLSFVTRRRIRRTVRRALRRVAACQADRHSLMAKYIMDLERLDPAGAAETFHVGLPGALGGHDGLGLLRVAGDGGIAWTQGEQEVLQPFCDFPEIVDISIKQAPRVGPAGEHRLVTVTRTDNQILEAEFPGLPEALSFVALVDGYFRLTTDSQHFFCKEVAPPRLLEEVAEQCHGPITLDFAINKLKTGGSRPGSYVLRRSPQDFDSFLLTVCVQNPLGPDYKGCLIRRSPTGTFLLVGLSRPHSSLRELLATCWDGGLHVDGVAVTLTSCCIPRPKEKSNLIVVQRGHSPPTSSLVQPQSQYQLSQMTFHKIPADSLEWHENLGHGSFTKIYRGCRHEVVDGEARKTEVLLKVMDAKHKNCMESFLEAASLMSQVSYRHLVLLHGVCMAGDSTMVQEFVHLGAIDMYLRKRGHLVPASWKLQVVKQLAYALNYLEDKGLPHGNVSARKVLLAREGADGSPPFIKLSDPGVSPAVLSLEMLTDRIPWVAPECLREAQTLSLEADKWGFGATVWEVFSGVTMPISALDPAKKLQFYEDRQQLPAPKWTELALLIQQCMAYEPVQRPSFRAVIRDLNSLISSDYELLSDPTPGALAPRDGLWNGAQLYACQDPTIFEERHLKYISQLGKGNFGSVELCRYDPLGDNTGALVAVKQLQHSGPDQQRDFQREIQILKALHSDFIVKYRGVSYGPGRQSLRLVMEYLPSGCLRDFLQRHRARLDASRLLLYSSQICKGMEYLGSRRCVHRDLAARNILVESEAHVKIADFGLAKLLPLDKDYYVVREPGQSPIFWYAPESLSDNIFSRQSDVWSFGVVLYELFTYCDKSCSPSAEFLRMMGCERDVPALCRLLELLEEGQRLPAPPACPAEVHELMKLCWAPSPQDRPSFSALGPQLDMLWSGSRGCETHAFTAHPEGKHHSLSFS

[8] = target: MAP/microtubule affinity-regulating kinase 3 (Homo sapiens) (UniProt P27448); assay: Selectivity interaction (KinomeScan (DiscoverX)) EUB0001079a MARK3; conditions: at 1 µM
Chain of MAP/microtubule affinity-regulating kinase 3 (Homo sapiens) (P27448 whole entry, looked up): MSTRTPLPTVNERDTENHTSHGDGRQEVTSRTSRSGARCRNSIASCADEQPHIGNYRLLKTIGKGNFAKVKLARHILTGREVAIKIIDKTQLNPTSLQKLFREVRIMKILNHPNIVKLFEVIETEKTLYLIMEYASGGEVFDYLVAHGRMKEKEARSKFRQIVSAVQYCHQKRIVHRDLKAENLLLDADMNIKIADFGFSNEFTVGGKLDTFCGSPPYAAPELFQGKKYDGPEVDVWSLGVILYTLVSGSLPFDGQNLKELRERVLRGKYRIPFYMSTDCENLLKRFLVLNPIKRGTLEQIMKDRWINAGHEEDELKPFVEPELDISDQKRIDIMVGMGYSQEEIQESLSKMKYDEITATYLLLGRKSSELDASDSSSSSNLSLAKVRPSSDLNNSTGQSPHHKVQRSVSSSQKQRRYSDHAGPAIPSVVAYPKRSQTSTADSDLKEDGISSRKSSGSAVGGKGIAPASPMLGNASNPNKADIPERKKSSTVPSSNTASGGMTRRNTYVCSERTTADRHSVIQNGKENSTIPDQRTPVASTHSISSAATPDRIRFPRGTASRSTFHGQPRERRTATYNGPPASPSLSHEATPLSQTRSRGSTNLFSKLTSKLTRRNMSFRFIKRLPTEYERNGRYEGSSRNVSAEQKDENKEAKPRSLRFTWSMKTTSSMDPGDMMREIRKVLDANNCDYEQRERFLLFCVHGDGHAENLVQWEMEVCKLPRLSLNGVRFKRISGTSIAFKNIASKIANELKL

[9] = target: Microtubule-associated serine/threonine-protein kinase 3 (Homo sapiens) (UniProt O60307); assay: Selectivity interaction (ActivX KiNativ screen (ex vivo kinase selectivity in human PBMCs)) EUB0001619a MAST3; type: cell-based; conditions: PBMC, at 1 µM
Chain of Microtubule-associated serine/threonine-protein kinase 3 (Homo sapiens) (O60307 whole entry): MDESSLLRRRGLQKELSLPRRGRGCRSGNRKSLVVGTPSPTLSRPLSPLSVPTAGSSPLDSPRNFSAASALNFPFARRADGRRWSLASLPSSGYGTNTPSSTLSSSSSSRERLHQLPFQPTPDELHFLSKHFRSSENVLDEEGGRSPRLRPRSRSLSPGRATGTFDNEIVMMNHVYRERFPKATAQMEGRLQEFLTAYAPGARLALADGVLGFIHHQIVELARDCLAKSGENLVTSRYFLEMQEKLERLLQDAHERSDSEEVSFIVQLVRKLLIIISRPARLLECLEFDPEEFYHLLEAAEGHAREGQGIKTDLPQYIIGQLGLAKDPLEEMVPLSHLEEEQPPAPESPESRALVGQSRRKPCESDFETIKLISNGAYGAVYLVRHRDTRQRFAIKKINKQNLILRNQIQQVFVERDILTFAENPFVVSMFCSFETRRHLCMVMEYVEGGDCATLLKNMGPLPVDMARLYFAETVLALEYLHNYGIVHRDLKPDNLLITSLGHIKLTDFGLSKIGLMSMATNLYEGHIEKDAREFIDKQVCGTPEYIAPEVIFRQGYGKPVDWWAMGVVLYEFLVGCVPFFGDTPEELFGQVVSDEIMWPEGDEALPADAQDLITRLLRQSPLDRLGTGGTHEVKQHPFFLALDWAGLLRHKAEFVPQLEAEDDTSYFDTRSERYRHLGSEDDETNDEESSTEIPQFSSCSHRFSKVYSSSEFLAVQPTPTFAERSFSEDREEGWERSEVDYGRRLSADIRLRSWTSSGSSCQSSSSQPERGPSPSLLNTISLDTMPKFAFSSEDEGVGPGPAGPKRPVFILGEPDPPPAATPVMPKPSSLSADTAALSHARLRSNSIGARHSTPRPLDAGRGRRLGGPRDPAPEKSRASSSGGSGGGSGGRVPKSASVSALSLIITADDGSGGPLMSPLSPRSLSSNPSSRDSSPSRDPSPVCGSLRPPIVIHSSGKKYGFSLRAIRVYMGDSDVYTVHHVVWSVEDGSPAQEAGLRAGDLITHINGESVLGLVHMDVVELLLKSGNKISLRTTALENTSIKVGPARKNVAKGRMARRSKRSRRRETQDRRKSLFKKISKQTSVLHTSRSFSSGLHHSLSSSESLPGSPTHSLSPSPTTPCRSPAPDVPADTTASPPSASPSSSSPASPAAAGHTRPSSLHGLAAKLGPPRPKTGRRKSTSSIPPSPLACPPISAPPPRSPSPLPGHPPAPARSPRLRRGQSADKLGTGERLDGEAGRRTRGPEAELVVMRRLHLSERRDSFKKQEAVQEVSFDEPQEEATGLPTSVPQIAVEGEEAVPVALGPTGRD

- % of inhibition [1]: 3%
Compound: CN1Cc2nccc(-c3cn(C)nc3-c3ccc(F)cc3)c2C1=O

- % of inhibition [2]: 7%
Compound: Cc1ccc(-c2ccc3c(ccc4sc5c(c43)NC[C@@H](C)NC5=O)n2)cn1

- % of control ([3]; at 1 µM): 102%
- % of control ([3]; at 5 µM): 103%
Compound: C=CC(=O)Nc1cccc(C(=O)Nc2ccc(Nc3cc(-c4[nH]c(SC)nc4C)ccn3)cc2)c1

- % of control [4]: 106%
Compound: CC(=O)Nc1cccc(-n2c(=O)n(C3CC3)c(=O)c3c(Nc4ccc(I)cc4F)n(C)c(=O)c(C)c32)c1

Compound: CN(C)C/C=C/C(=O)Nc1ccc(C(=O)N2CCCC(Nc3ncc(Cl)c(-c4c[nH]c5ccccc45)n3)C2)cc1 (stereo not given)
- % of control [5]: 80%
- % of control [6]: 86%

- IC50 [7]: > 10 µM
Compound: CCc1cccc(CC)c1NC(=O)c1nn(C)c2c1CCc1cnc(Nc3ccc(C(=O)NC4CCN(C)CC4)cc3OC(F)(F)F)nc1-2

Compound: Nc1cnc(N2CCc3cc(S(=O)(=O)Nc4c(F)cc(Cl)cc4F)cc(N4CCCC4=O)c32)nc1 [TP-020n]
- % of control [8]: 100%

Compound: N#Cc1cccc(-c2c[nH]c3ncnc(N4CCOCC4)c23)c1
- % of inhibition [9]: 1%

— ChEMBL document CHEMBL5465560, “Selectivity Literature for EUbOPEN Chemogenomic Library” (2024)
